Test in all cases: Bacterial growth minimal inhibitory concentration (microdilution, cation-adjusted Mueller-Hinton Broth)
The test system of test [1] is K. pneumoniae T6474. It is filed as cell-based, Klebsiella pneumoniae. The note with it: Klebsiella pneumoniae, T6474; multiply-resistant strain (penicillin-, cephalosporin- and quinolone-resistant). As for the experimental part:
(§1) Minimal Inhibitory Concentrations (MICs; mg/L) were determined in cation-adjusted Mueller-Hinton Broth by a microdilution method following the description given in “Methods for Dilution Antimicrobial Susceptibility Tests for Bacteria that Grow Aerobically”, Approved standard, 7th ed., Clinical and Laboratory Standards Institute (CLSI) Document M7-A7, Wayne, Pa., USA (2006).
(§2) All Example compounds were tested against several Gram positive and Gram negative bacteria. […] Staphylococcus aureus A798 is a multiply-resistant strain (methicillin- and quinolone-resistant), Klebsiella pneumoniae T6474 is a multiply-resistant strain (penicillin-, cephalosporin- and in particular quinolone-resistant), while E. coli ATCC25922 and Pseudomonas aeruginosa ATCC 27853 are quinolone-sensitive strains.

For test [2], the system named is S. aureus A798. It is filed as cell-based, Staphylococcus aureus. The conditions noted are these: Staphylococcus aureus, A798; multiply-resistant strain (methicillin- and quinolone-resistant). As for the experimental part:
as §1, §2

In test [3] the test system is P. aeruginosa ATCC 27853. It is filed as cell-based, Pseudomonas aeruginosa. The note with it: Pseudomonas aeruginosa, ATCC27853; quinolone-sensitive strain. As for the experimental part: as §1, §2
For test [4], the system named is E. coli ATCC25922. It is filed as cell-based. The conditions noted are these: Escherichia coli, ATCC25922; quinolone-sensitive strain. Here is the method: as §1, §2

In US9850256B2, “Antibacterial basic biaromatic derivatives with aminoalkoxy substitution” (priority 2014, dated 2017) one finds MIC data, which are given here for 15 molecules.

Converted amounts (≈) assume the structure as drawn.

As to `O=C1COc2ccc(N3C[C@H](CCNCc4cccc(-c5cccc(OC[C@@H]6CCCN6)n5)c4)OC3=O)nc2N1` [Example $133, 6-[(S)-2-oxo-5-(2-{3-[6-((S)-1-pyrrolidin-2-ylmethoxy)-pyridin-2-yl]-benzylamino}-ethyl)-oxazolidin-3-yl]-4H-pyrido[3,2-b][1,4]oxazin-3-one], the MIC in test [1] worked out at 2 µg/mL (≈ 3.67 µM); in test [2] it was 1 µg/mL (≈ 1.84 µM); in test [3], 0.5 µg/mL (≈ 0.918 µM); in test [4], 1 µg/mL (≈ 1.84 µM).
Consider `CN1CC[C@H](Oc2cccc(-c3cccc(CNCC[C@@H]4CN(c5ccc6c(c5)NC(=O)CS6)C(=O)O4)c3)n2)C1` [Example $150, 6-[(R)-5-(2-{3-[6-((S)-1-methyl-pyrrolidin-3-yloxy)-pyridin-2-yl]-benzylamino}-ethyl)-2-oxo-oxazolidin-3-yl]-4H-benzo[1,4]thiazin-3-one], for which the MIC in test [1], in test [2], in test [3] and in test [4] was 2 µg/mL (≈ 3.57 µM) each time.
Take `CN1CC[C@H](Oc2cnnc(-c3cccc(CNCC[C@H]4CN(c5ccc6c(n5)NC(=O)CO6)C(=O)O4)c3)c2)C1` [Example $153, 6-[(S)-5-(2-{3-[5-((S)-1-methyl-pyrrolidin-3-yloxy)-pyridazin-3-yl]-benzylamino}-ethyl)-2-oxo-oxazolidin-3-yl]-4H-pyrido[3,2-b][1,4]oxazin-3-one]: the MIC amounted to 4 µg/mL (≈ 7.33 µM) in test [1], 4 µg/mL (≈ 7.33 µM) in test [2], 4 µg/mL (≈ 7.33 µM) in test [3] and 2 µg/mL (≈ 3.67 µM) in test [4].
Consider `O=C1COc2ccc(N3C[C@H](CCNCc4cccc(-c5cc(OC6CNC6)cnn5)c4)OC3=O)nc2N1` [Example $114, 6-[(S)-5-(2-{3-[5-(azetidin-3-yloxy)-pyridazin-3-yl]-benzylamino}-ethyl)-2-oxo-oxazolidin-3-yl]-4H-pyrido[3,2-b][1,4]oxazin-3-one], for which the minimal inhibitory concentration (MIC) in test [1] turned out to be 8 µg/mL (≈ 15.5 µM); in test [2], 16 µg/mL (≈ 30.9 µM); in test [3], 1 µg/mL (≈ 1.93 µM); in test [4], 4 µg/mL (≈ 7.73 µM).
For `O=C1COc2ccc(N3C[C@H](CCNCc4cccc(-c5cc(O[C@@H]6CCNC6)cnn5)c4)OC3=O)nc2N1` [Example $180, 6-[(S)-2-oxo-5-(2-{3-[5-((R)-pyrrolidin-3-yloxy)-pyridazin-3-yl]-benzylamino}-ethyl)-oxazolidin-3-yl]-4H-pyrido[3,2-b][1,4]oxazin-3-one], the MIC in test [1] was more than 16 µg/mL; in test [2], more than 16 µg/mL; in test [3] it was 4 µg/mL (≈ 7.52 µM); in test [4], 16 µg/mL (≈ 30.1 µM).
Regarding `O=C1COc2ccc(N3C[C@H](CCNCc4cccc(-c5cccc(OCCN6CCOCC6)n5)c4)OC3=O)nc2N1` [Example 23, 6-[(S)-5-(2-{3-[6-(2-morpholin-4-yl-ethoxy)-pyridin-2-yl]-benzylamino}-ethyl)-2-oxo-oxazolidin-3-yl]-4H-pyrido[3,2-b][1,4]oxazin-3-one], the minimal inhibitory concentration (MIC) in test [1] stood at 8 µg/mL (≈ 13.9 µM); in test [2], 0.125 µg/mL (≈ 0.218 µM); in test [3] it was 8 µg/mL (≈ 13.9 µM); in test [4], 4 µg/mL (≈ 6.96 µM).
Consider `CN1CC[C@H](Oc2cncc(-c3cc(CNCC[C@H]4CN(c5ccc6c(n5)NC(=O)CO6)C(=O)O4)ccn3)n2)C1` [Example $147, 6-{(S)-5-[2-({2-[6-((S)-1-methyl-pyrrolidin-3-yloxy)-pyrazin-2-yl]-pyridin-4-ylmethyl}-amino)-ethyl]-2-oxo-oxazolidin-3-yl}-4H-pyrido[3,2-b][1,4]oxazin-3-one], for which the minimum inhibitory concentration (MIC) in test [1] worked out at 1 µg/mL (≈ 1.83 µM); in test [2] it was 1 µg/mL (≈ 1.83 µM); in test [3], 4 µg/mL (≈ 7.32 µM); in test [4], 1 µg/mL (≈ 1.83 µM).
On to `CC(CN)Oc1cccc(-c2cccc(CNCC[C@H]3CN(c4ccc5c(n4)NC(=O)CO5)C(=O)O3)c2)c1` (mixture of isomers) [Example 6, 6-((S)-5-(2-(((3′-(((RS)-1-aminopropan-2-yl)oxy)-[1,1′-biphenyl]-3-yl)methyl)amino)ethyl)-2-oxooxazolidin-3-yl)-2H-pyrido[3,2-b][1,4]oxazin-3(4H)-one], for which the MIC in test [1], in test [2], in test [3] and in test [4] was 4 µg/mL throughout.
For `CN1CC[C@H](Oc2cncc(-c3cccc(CNCC[C@H]4CN(c5ccc6c(n5)NC(=O)CO6)C(=O)O4)n3)n2)C1` [Example $145, 6-{(S)-5-[2-({6-[6-((S)-1-methyl-pyrrolidin-3-yloxy)-pyrazin-2-yl]-pyridin-2-ylmethyl}-amino)-ethyl]-2-oxo-oxazolidin-3-yl}-4H-pyrido[3,2-b][1,4]oxazin-3-one], the MIC in test [1] came to 2 µg/mL (≈ 3.66 µM); in test [2], 2 µg/mL (≈ 3.66 µM); in test [3] it was 8 µg/mL (≈ 14.6 µM); in test [4] it was 4 µg/mL (≈ 7.32 µM).
With `NCCOc1cccc(-c2cccc(CNCC[C@@H]3CN(c4ccc5c(c4)NC(=O)CS5)C(=O)O3)c2)n1` [Example 22, 6-[(R)-5-(2-{3-[6-(2-amino-ethoxy)-pyridin-2-yl]-benzylamino}-ethyl)-2-oxo-oxazolidin-3-yl]-4H-benzo[1,4]thiazin-3-one], the MIC stood at 2 µg/mL (≈ 3.85 µM) in test [1], 0.5 µg/mL (≈ 0.962 µM) in test [2], 0.5 µg/mL (≈ 0.962 µM) in test [3] and 0.5 µg/mL (≈ 0.962 µM) in test [4].
Take `O=C1COc2ccc(N3C[C@H](CCNCc4cccc(-c5cccc(OC6CNC6)c5)c4)OC3=O)nc2N1` [Example $105, 6-[(S)-5-(2-{[3′-(azetidin-3-yloxy)-biphenyl-3-ylmethyl]-amino}-ethyl)-2-oxo-oxazolidin-3-yl]-4H-pyrido[3,2-b][1,4]oxazin-3-one]: the MIC in test [1], in test [2], in test [3] and in test [4] was 2 µg/mL (≈ 3.88 µM) throughout.
Regarding `O=C1COc2ccc(N3C[C@H](CCNCc4cccc(-c5cccc(OCCN6CCCCC6)n5)c4)OC3=O)nc2N1` [Example 12, 6-[(S)-2-oxo-5-(2-{3-[6-(2-piperidin-1-yl-ethoxy)-pyridin-2-yl]-benzylamino}-ethyl)-oxazolidin-3-yl]-4H-pyrido[3,2-b][1,4]oxazin-3-one], the MIC in test [1] came out at 2 µg/mL (≈ 3.49 µM); in test [2] it was 0.063 µg/mL (≈ 0.11 µM); in test [3], 2 µg/mL (≈ 3.49 µM); in test [4], 1 µg/mL (≈ 1.75 µM).
For `N[C@@H]1CC[C@H](Oc2cccc(-c3cccc(CNCC[C@H]4CN(c5ccc6c(n5)NC(=O)CO6)C(=O)O4)c3)c2)C1` [$183, 6-[(S)-5-(2-{[3′-((1S,3R)-3-amino-cyclopentyloxy)-biphenyl-3-ylmethyl]-amino}-ethyl)-2-oxo-oxazolidin-3-yl]-4H-pyrido[3,2-b][1,4]oxazin-3-one], the MIC in test [1] amounted to 4 µg/mL (≈ 7.36 µM); in test [2] it was 2 µg/mL (≈ 3.68 µM); in test [3], 4 µg/mL (≈ 7.36 µM); in test [4], 4 µg/mL (≈ 7.36 µM).
For the molecule `NCCOc1cccc(-c2ccnc(CNCC[C@H]3CN(c4ccc5c(n4)NC(=O)CO5)C(=O)O3)n2)n1` [Example $165, 6-{(S)-5-[2-({4-[6-(2-amino-ethoxy)-pyridin-2-yl]-pyrimidin-2-ylmethyl}-amino)-ethyl]-2-oxo-oxazolidin-3-yl}-4H-pyrido[3,2-b][1,4]oxazin-3-one], the MIC was 4 µg/mL (≈ 7.9 µM) in test [1], 8 µg/mL (≈ 15.8 µM) in test [2], 2 µg/mL (≈ 3.95 µM) in test [3] and 4 µg/mL (≈ 7.9 µM) in test [4].
Turning to `O=C1COc2ccc(N3C[C@H](CCNCc4cccc(-c5cccc(OC[C@H]6CCCN6)n5)c4)OC3=O)nc2N1` [Example $132, 6-[(S)-2-oxo-5-(2-{3-[6-((R)-1-pyrrolidin-2-ylmethoxy)-pyridin-2-yl]-benzylamino}-ethyl)-oxazolidin-3-yl]-4H-pyrido[3,2-b][1,4]oxazin-3-one], the MIC in test [1] was 1 µg/mL (≈ 1.84 µM); in test [2], 0.25 µg/mL (≈ 0.459 µM); in test [3], 0.5 µg/mL (≈ 0.918 µM); in test [4] it was 0.5 µg/mL (≈ 0.918 µM).
